Results: PubChem BioAssay AID1259407 (Chemical Carcinogenesis Research Information System (CCRIS), 2018)
Active and inactive are the calls of the source. How the calls were made is not given here.

Test system: CCRIS mutagenicity, Ames/micronucleus/aberration tests
Experiment: CCRIS mutagenicity studies
[1] = Test System: AMES SALMONELLA TYPHIMURIUM, Strain/Indicator: TA98, Metabolic Activation: NONE, Method: STANDARD PLATE
[2] = Test System: AMES SALMONELLA TYPHIMURIUM, Strain/Indicator: TA100, Metabolic Activation: NONE, Method: STANDARD PLATE
[3] = Test System: AMES SALMONELLA TYPHIMURIUM, Strain/Indicator: TA1535, Metabolic Activation: NONE, Method: STANDARD PLATE
[4] = Test System: AMES SALMONELLA TYPHIMURIUM, Strain/Indicator: TA1537, Metabolic Activation: NONE, Method: STANDARD PLATE
[5] = Test System: AMES SALMONELLA TYPHIMURIUM, Strain/Indicator: TA100, Metabolic Activation: NONE, Method: PREINCUBATION

In the case of CCOC(=O)C1C(C=C(C)C)C1(C)C (centres undefined), the mutagenic call [1] is reported as “inactive; negative”, the mutagenic call (Test System: AMES SALMONELLA TYPHIMURIUM, Strain/Indicator: TA98, Metabolic Activation: RAT, LIVER, S-9, AROCLOR 1254, Method: STANDARD PLATE) is reported as “inactive; negative” and the mutagenic call [2] is reported as “inactive; negative”. The mutagenic call (Test System: AMES SALMONELLA TYPHIMURIUM, Strain/Indicator: TA100, Metabolic Activation: RAT, LIVER, S-9, AROCLOR 1254, Method: STANDARD PLATE) was “inactive; negative”, the mutagenic call [3] was “inactive; negative” and the mutagenic call (Test System: AMES SALMONELLA TYPHIMURIUM, Strain/Indicator: TA1535, Metabolic Activation: RAT, LIVER, S-9, AROCLOR 1254, Method: STANDARD PLATE) was “inactive; negative”. For the same molecule, the mutagenic call [4] was “inactive; negative”, the mutagenic call (Test System: AMES SALMONELLA TYPHIMURIUM, Strain/Indicator: TA1537, Metabolic Activation: RAT, LIVER, S-9, AROCLOR 1254, Method: STANDARD PLATE) was “inactive; negative” and the mutagenic call (Test System: E. COLI, Strain/Indicator: WP2, Metabolic Activation: NONE, Method: STANDARD PLATE) was “inactive; negative”. The mutagenic call (Test System: E. COLI, Strain/Indicator: WP2, Metabolic Activation: RAT, LIVER, S-9, AROCLOR 1254, Method: STANDARD PLATE) was “inactive; negative”.

For CO/N=C(\C(=O)N[C@@H]1C(=O)N2C(C(=O)[O-])=C(C[n+]3ccn4ncccc43)CS[C@H]12)c1nsc(N)n1, the mutagenic call [1] was “inactive; negative”, the mutagenic call (Test System: AMES SALMONELLA TYPHIMURIUM, Strain/Indicator: TA98, Metabolic Activation: RAT, LIVER, S-9, SODIUM PHENOBARBITAL AND 5,6-BENZOFLAVONE, Method: STANDARD PLATE) was “inactive; negative” and the mutagenic call [2] was “inactive; negative”. The mutagenic call (Test System: AMES SALMONELLA TYPHIMURIUM, Strain/Indicator: TA100, Metabolic Activation: RAT, LIVER, S-9, SODIUM PHENOBARBITAL AND 5,6-BENZOFLAVONE, Method: STANDARD PLATE) was “inactive; negative”, the mutagenic call [3] was “inactive; negative” and the mutagenic call (Test System: AMES SALMONELLA TYPHIMURIUM, Strain/Indicator: TA1535, Metabolic Activation: RAT, LIVER, S-9, SODIUM PHENOBARBITAL AND 5,6-BENZOFLAVONE, Method: STANDARD PLATE) was “inactive; negative”. The mutagenic call [4] was “inactive; negative”, the mutagenic call (Test System: AMES SALMONELLA TYPHIMURIUM, Strain/Indicator: TA1537, Metabolic Activation: RAT, LIVER, S-9, SODIUM PHENOBARBITAL AND 5,6-BENZOFLAVONE, Method: STANDARD PLATE) was “inactive; negative” and the mutagenic call (Test System: E. COLI, Strain/Indicator: WP2 UVRA, Metabolic Activation: NONE, Method: STANDARD PLATE) was “inactive; negative”. For the same molecule, the mutagenic call (Test System: E. COLI, Strain/Indicator: WP2 UVRA, Metabolic Activation: RAT, LIVER, S-9, SODIUM PHENOBARBITAL AND 5,6-BENZOFLAVONE, Method: STANDARD PLATE) was “inactive; negative”.

In the case of Nc1ccccc1C(=O)O, the mutagenic call (Test System: AMES SALMONELLA TYPHIMURIUM, Strain/Indicator: TA98, Metabolic Activation: HAMSTER, LIVER, S-9, AROCLOR 1254 (10%), Method: PREINCUBATION) is reported as “inactive; negative”, the mutagenic call (Test System: AMES SALMONELLA TYPHIMURIUM, Strain/Indicator: TA98, Metabolic Activation: NONE, Method: PREINCUBATION) is reported as “inactive; negative” and the mutagenic call (Test System: AMES SALMONELLA TYPHIMURIUM, Strain/Indicator: TA98, Metabolic Activation: RAT, LIVER, S-9, AROCLOR 1254 (10%), Method: PREINCUBATION) is reported as “inactive; negative”. The mutagenic call (Test System: AMES SALMONELLA TYPHIMURIUM, Strain/Indicator: TA100, Metabolic Activation: HAMSTER, LIVER, S-9, AROCLOR 1254 (10%), Method: PREINCUBATION) was “inactive; negative”, the mutagenic call [5] was “inactive; negative” and the mutagenic call (Test System: AMES SALMONELLA TYPHIMURIUM, Strain/Indicator: TA100, Metabolic Activation: RAT, LIVER, S-9, AROCLOR 1254 (10%), Method: PREINCUBATION) was “inactive; negative”. For the same molecule, the mutagenic call (Test System: AMES SALMONELLA TYPHIMURIUM, Strain/Indicator: TA1535, Metabolic Activation: HAMSTER, LIVER, S-9, AROCLOR 1254 (10%), Method: PREINCUBATION) was “inactive; negative”, the mutagenic call (Test System: AMES SALMONELLA TYPHIMURIUM, Strain/Indicator: TA1535, Metabolic Activation: NONE, Method: PREINCUBATION) was “inactive; negative” and the mutagenic call (Test System: AMES SALMONELLA TYPHIMURIUM, Strain/Indicator: TA1535, Metabolic Activation: RAT, LIVER, S-9, AROCLOR 1254 (10%), Method: PREINCUBATION) was “inactive; negative”. For the same molecule, the mutagenic call (Test System: AMES SALMONELLA TYPHIMURIUM, Strain/Indicator: TA1537, Metabolic Activation: HAMSTER, LIVER, S-9, AROCLOR 1254 (10%), Method: PREINCUBATION) was “inactive; negative”, the mutagenic call (Test System: AMES SALMONELLA TYPHIMURIUM, Strain/Indicator: TA1537, Metabolic Activation: NONE, Method: PREINCUBATION) was “inactive; negative” and the mutagenic call (Test System: AMES SALMONELLA TYPHIMURIUM, Strain/Indicator: TA1537, Metabolic Activation: RAT, LIVER, S-9, AROCLOR 1254 (10%), Method: PREINCUBATION) was “inactive; negative”. The mutagenic call (Test System: CHINESE HAMSTER OVARY, Strain/Indicator: CHO-K1-BH4 (HGPRT)/6-THIOGUANINE, Metabolic Activation: NONE) was “inactive; negative”, the mutagenic call (Test System: CHINESE HAMSTER OVARY, Strain/Indicator: CHO-K1-BH4 (HGPRT)/6-THIOGUANINE, Metabolic Activation: S-9) was “inactive; negative” and the mutagenic call (Test System: MOUSE LYMPHOMA, Strain/Indicator: L5178Y (TK+/TK-), Metabolic Activation: RAT, LIVER, S-9, AROCLOR 1254, Method: SUSPENSION/PLATE) was “active; positive”. For the same molecule, the mutagenic call (Test System: Mouse lymphoma, Strain/Indicator: L5178Y (tk+/tk-), Metabolic Activation: None, Method: Suspension/plate) was “inactive; negative” and the mutagenic call (Test System: Mouse lymphoma, Strain/Indicator: L5178Y (tk+/tk-), Metabolic Activation: Rat, Liver, S-9, Aroclor 1254, Method: Suspension/plate) was “active; positive”.

In the case of COc1nsc2cc(OCC3CO3)ccc12 (centres undefined), the mutagenic call [2] is reported as “active; positive”.

With ClC[C@@]1(C(Cl)Cl)C2[C@@H](Cl)[C@H](Cl)C1(C(Cl)Cl)[C@@H](Cl)[C@@H]2Cl the mutagenic call [5] was “inactive; negative”.
